Patent publication US5712273A, “Amino acid derivatives, processes for the manufacture thereof and pharmaceutical compositions (II) containing these compounds” (Boehringer Ingelheim GmbH, priority 1994, dated 1998)
Read-outs that look alike come from different tables or passages of the source.

Experiments:
[1] = molecular target: T1, NK1-receptor (substance P-receptor) (Homo sapiens, UniProt P25103); assay: NK1-receptor (substance P-receptor) affinity: displacement of 125I-labelled substance P on IM-9 cells; type: binding
T1 construct: cloned NK1 -receptors on human lymphoblastoma cells (IM-9); endogenous in cells; host or cells: IM-9 human lymphoblastoma cells
Experimental: (§1) The receptor affinity at the NK1 -receptor (substance P-receptor) was determined with cloned NK1 -receptors on human lymphoblastoma cells (IM-9), whereby the displacement of ^125 I-labelled substance P is measured. The NK2 -binding test is carried out on transfixed A20 cells which represent the human NK2 receptor. The displacement of ^125 I-BN-neusolinine A is determined.

human NK2 receptor = molecular target: T2, human NK2 receptor (Homo sapiens, UniProt P21452); assay: NK2-binding test: displacement of 125I-labelled ligand on A20 cells which represent the human NK2 receptor; details: transfixed A20 cells (human NK2 receptor); displacement of 125I-BN-neusolinine A
T2 construct: expressed in transfected cells; host or cells: A20 cells
T2 sequence (P21452 1-398): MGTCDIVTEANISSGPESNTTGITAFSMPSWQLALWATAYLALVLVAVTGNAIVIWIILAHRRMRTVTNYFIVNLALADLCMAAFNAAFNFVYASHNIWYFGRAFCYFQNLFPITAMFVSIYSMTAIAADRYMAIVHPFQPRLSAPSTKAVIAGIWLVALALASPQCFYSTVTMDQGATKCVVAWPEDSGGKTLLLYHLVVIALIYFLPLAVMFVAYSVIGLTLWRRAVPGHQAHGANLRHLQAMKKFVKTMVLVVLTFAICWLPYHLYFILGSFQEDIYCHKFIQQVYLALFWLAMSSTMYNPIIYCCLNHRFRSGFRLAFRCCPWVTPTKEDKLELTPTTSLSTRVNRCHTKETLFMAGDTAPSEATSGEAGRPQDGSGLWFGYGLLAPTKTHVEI
Experimental: as §1

[2] = cloned NK1-receptors on human lymphoblastoma cells (IM-9), displacement of 125I-labelled substance P, read-out: NK1 IC50

T1 sequence (P25103 whole entry): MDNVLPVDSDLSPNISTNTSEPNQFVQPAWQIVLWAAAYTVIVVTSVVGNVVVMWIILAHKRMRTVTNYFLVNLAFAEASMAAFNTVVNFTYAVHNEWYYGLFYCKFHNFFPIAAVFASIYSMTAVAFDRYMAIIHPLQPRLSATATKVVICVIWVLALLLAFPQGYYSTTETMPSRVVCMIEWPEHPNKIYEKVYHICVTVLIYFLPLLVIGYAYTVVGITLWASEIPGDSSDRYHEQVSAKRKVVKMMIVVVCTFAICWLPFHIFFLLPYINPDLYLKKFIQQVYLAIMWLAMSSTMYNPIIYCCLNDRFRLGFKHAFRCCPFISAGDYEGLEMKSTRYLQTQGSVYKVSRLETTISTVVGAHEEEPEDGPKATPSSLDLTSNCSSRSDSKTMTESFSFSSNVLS

Work on `COc1ccccc1N1CCN(C(=O)[C@H](Cc2ccc3ccccc3c2)NC(=O)[C@@H]2C[C@@H](O)CN2C(=O)C2C(=O)C3(C)CCC2C3(C)C)CC1` (single isomer, unassigned) [Compound 1] yielded an IC50 [1, 2] of 3.1 nM and an IC50 (human NK2 receptor) of 21 nM.

For `Cc1ccccc1CN(C)C(=O)[C@H](Cc1c[nH]c2ccccc12)NC(=O)[C@@H]1C[C@@H](O)CN1C(=O)C1C(=O)C2(C)CCC1C2(C)C` (single isomer, unassigned) [Compound 2], the IC50 [1, 2] was 3.6 nM and the IC50 (human NK2 receptor) was 21 nM.

Compound `Cc1ccccc1N1CCN(C(=O)[C@H](Cc2ccc3ccccc3c2)NC(=O)[C@@H]2C[C@@H](O)CN2C(=O)C2C(=O)C3(C)CCC2C3(C)C)CC1` (stereo partly drawn) [Compound 3] has an IC50 [1, 2] of 3 nM and an IC50 (human NK2 receptor) of 65 nM.

`CC(C)c1ccccc1N1CCN(C(=O)[C@H](Cc2ccc3ccccc3c2)NC(=O)[C@@H]2C[C@@H](O)CN2C(=O)C2C(=O)C3(C)CCC2C3(C)C)CC1` (stereo partly drawn) [Compound 4] gave an IC50 [1, 2] of 5 nM and an IC50 (human NK2 receptor) of 110 nM.

For `COc1ccc(N2CCN(C(=O)[C@H](Cc3ccc4ccccc4c3)NC(=O)[C@@H]3C[C@@H](O)CN3C(=O)C3C(=O)C4(C)CCC3C4(C)C)CC2)c(C)c1` (stereo partly drawn) [Compound 5], the IC50 [1, 2] was 11 nM and the IC50 (human NK2 receptor) was 117 nM.

`CC12CCC(C(C(=O)N3C[C@H](O)C[C@H]3C(=O)N[C@@H](Cc3ccc4ccccc4c3)C(=O)N3CCN(c4ccccn4)CC3)C1=O)C2(C)C` (stereo partly drawn) [Compound 6] was tested, and the IC50 [1, 2] was 45 nM.

`CCOC(=O)c1ccccc1N1CCN(C(=O)[C@H](Cc2ccc3ccccc3c2)NC(=O)[C@@H]2C[C@@H](O)CN2C(=O)C2C(=O)C3(C)CCC2C3(C)C)CC1` (stereo partly drawn) [Compound 7] was tested, and the IC50 [1, 2] was 0.45 nM and the IC50 (human NK2 receptor) was 44 nM.

Work on `CC12CCC(C(C(=O)N3C[C@H](O)C[C@H]3C(=O)N[C@@H](Cc3ccc4ccccc4c3)C(=O)N3CCN(c4ccccc4Cl)CC3)C1=O)C2(C)C` (stereo partly drawn) [Compound 8] yielded an IC50 [1, 2] of 3 nM and an IC50 (human NK2 receptor) of 18 nM.

Compound `CC12CCC(C(C(=O)N3C[C@H](O)C[C@H]3C(=O)N[C@@H](Cc3ccc4ccccc4c3)C(=O)N3CCN(C4CCCCC4)CC3)C1=O)C2(C)C` (stereo partly drawn) [Compound 9] has an IC50 [1, 2] of 17 nM.

`CC12CCC(C(C(=O)N3C[C@H](O)C[C@H]3C(=O)N[C@@H](Cc3ccc4ccccc4c3)C(=O)N3CCN(C(c4ccc(F)cc4)c4ccc(F)cc4)CC3)C1=O)C2(C)C` (stereo partly drawn) [Compound 10] gave an IC50 [1, 2] of 200 nM.

Compound `CC12CCC(C(C(=O)N3C[C@H](O)C[C@H]3C(=O)N[C@@H](Cc3ccc4ccccc4c3)C(=O)N3CCN(c4ccccc4[N+](=O)[O-])CC3)C1=O)C2(C)C` (stereo partly drawn) [Compound 11] has an IC50 [1, 2] of 3.2 nM.

`CC12CCC(C(C(=O)N3C[C@H](O)C[C@H]3C(=O)N[C@@H](Cc3ccc4ccccc4c3)C(=O)N3CCN(c4ccccc4O)CC3)C1=O)C2(C)C` (stereo partly drawn) [Compound 12] was tested, and the IC50 [1, 2] was 5.6 nM.

`CC12CCC(C(C(=O)N3C[C@H](O)C[C@H]3C(=O)N[C@@H](Cc3ccc4ccccc4c3)C(=O)N3CCN(c4ccc5ccccc5c4)CC3)C1=O)C2(C)C` (stereo partly drawn) [Compound 13] was tested, and the IC50 [1, 2] was 105 nM and the IC50 (human NK2 receptor) was 780 nM.

`CSc1ccccc1N1CCN(C(=O)[C@H](Cc2ccc3ccccc3c2)NC(=O)[C@@H]2C[C@@H](O)CN2C(=O)C2C(=O)C3(C)CCC2C3(C)C)CC1` (stereo partly drawn) [Compound 14] showed an IC50 [1, 2] of 3.1 nM and an IC50 (human NK2 receptor) of 240 nM.

In the case of `CCOc1ccccc1N1CCN(C(=O)[C@H](Cc2ccc3ccccc3c2)NC(=O)[C@@H]2C[C@@H](O)CN2C(=O)C2C(=O)C3(C)CCC2C3(C)C)CC1` (stereo partly drawn) [Compound 15], the IC50 [1, 2] is reported as 3.2 nM and the IC50 (human NK2 receptor) is reported as 38 nM.

For `CC12CCC(C(C(=O)N3C[C@H](O)C[C@H]3C(=O)N[C@@H](Cc3ccc4ccccc4c3)C(=O)N3CCN(c4ccccc4C#N)CC3)C1=O)C2(C)C` (stereo partly drawn) [Compound 16], the IC50 [1, 2] was 0.7 nM and the IC50 (human NK2 receptor) was 19 nM.

Work on `COc1ccccc1N1CCN(C(=O)[C@H](Cc2ccc3ccccc3c2)NC(=O)[C@@H]2C[C@@H](O)CN2C(=O)C2C3CC4C(C3=O)C42)CC1` (stereo partly drawn) [Compound 17] yielded an IC50 [1, 2] of 7 nM and an IC50 (human NK2 receptor) of 93 nM.

`COc1ccccc1N1CCN(C(=O)[C@H](Cc2ccc3ccccc3c2)NC(=O)[C@@H]2C[C@@H](O)CN2C(=O)C2C3CCC(C)(C2O)C3(C)C)CC1` (stereo partly drawn) [Compound 18] was tested, and the IC50 [1, 2] was 8 nM and the IC50 (human NK2 receptor) was 16 nM.

In the case of `COc1ccccc1N1CCN(C(=O)[C@H](Cc2ccc3ccccc3c2)NC(=O)[C@@H]2C[C@@H](O)CN2C(=O)C2CC3C=CC2(OC)CC3)CC1` (stereo partly drawn) [Compound 19], the IC50 [1, 2] is reported as 26 nM and the IC50 (human NK2 receptor) is reported as 600 nM.

For `COc1ccccc1N1CCN(C(=O)[C@H](Cc2ccc3ccccc3c2)NC(=O)[C@@H]2C[C@@H](O)CN2S(=O)(=O)CC23CCC(CC2=O)C3(C)C)CC1` (stereo partly drawn) [Compound 20], the IC50 [1, 2] was 26 nM and the IC50 (human NK2 receptor) was 350 nM.

For `COc1ccccc1N1CCN(C(=O)[C@H](Cc2ccc3ccccc3c2)NC(=O)[C@@H]2C[C@@H](O)CN2C(=O)C2CCCCC2O)CC1` (stereo partly drawn) [Compound 21], the IC50 [1, 2] was 20 nM and the IC50 (human NK2 receptor) was 130 nM.

Work on `COc1ccccc1N1CCN(C(=O)[C@H](Cc2ccc3ccccc3c2)NC(=O)[C@@H]2C[C@@H](O)CN2C(=O)C2C(O)C3CCN2CC3)CC1` (stereo partly drawn) [Compound 22] yielded an IC50 [1] of 25 nM and an IC50 (human NK2 receptor) of 1300 nM.

`COc1ccccc1N1CCN(C(=O)[C@H](Cc2ccc3ccccc3c2)NC(=O)[C@@H]2C[C@@H](O)CN2C(=O)C2CC3CCC2(OC)CC3)CC1` (stereo partly drawn) [Compound 23] was tested, and the IC50 [1, 2] was 14 nM and the IC50 (human NK2 receptor) was 140 nM.

With `COc1ccccc1N1CCN(C(=O)[C@H](Cc2ccc3ccccc3c2)NC(=O)[C@@H]2C[C@@H](O)CN2C(=O)C23CCC(C)(C(=O)O2)C3(C)C)CC1` (stereo partly drawn) [Compound 24] the IC50 [1, 2] was 3.3 nM and the IC50 (human NK2 receptor) was 1240 nM.

Work on `COc1ccccc1N1CCN(C(=O)[C@H](Cc2ccc3ccccc3c2)NC(=O)[C@@H]2C[C@@H](O)CN2C(=O)C2CCCCC2=O)CC1` (stereo partly drawn) [Compound 25] yielded an IC50 [1, 2] of 18 nM and an IC50 (human NK2 receptor) of 880 nM.

In the case of `CC12CCC(C(C(=O)N3C[C@H](O)C[C@H]3C(=O)N[C@@H](Cc3c[nH]c4ccccc34)C(=O)N3CCN(c4ccccc4C#N)CC3)C1=O)C2(C)C` (stereo partly drawn) [Compound 26], the IC50 [1, 2] is reported as 28 nM.

Work on `CN(Cc1ccccc1)C(=O)[C@H](Cc1ccc2ccccc2c1)NC(=O)[C@@H]1C[C@@H](O)CN1C(=O)C1C(=O)C2(C)CCC1C2(C)C` (stereo partly drawn) [Compound 27] yielded an IC50 [1, 2] of 0.5 nM and an IC50 (human NK2 receptor) of 450 nM.

With `COc1ccccc1CN1C(=O)C(NC(=O)[C@@H]2C[C@@H](O)CN2C(=O)C2C(=O)C3(C)CCC2C3(C)C)Cc2cc(OC)c(OC)cc21` (stereo partly drawn) [Compound 28] the IC50 [1, 2] was 23 nM and the IC50 (human NK2 receptor) was 1500 nM.

Work on `CN(Cc1ccccc1Cl)C(=O)[C@H](Cc1c[nH]c2ccccc12)NC(=O)[C@@H]1C[C@@H](O)CN1C(=O)C1C(=O)C2(C)CCC1C2(C)C` (stereo partly drawn) [Compound 42] yielded an IC50 [1, 2] of 1.2 nM and an IC50 (human NK2 receptor) of 54 nM.

`CN(Cc1ccccc1Br)C(=O)[C@H](Cc1c[nH]c2ccccc12)NC(=O)[C@@H]1C[C@@H](O)CN1C(=O)C1C(=O)C2(C)CCC1C2(C)C` (stereo partly drawn) [Compound 43] showed an IC50 [1, 2] of 1.2 nM and an IC50 (human NK2 receptor) of 21 nM.

`CCc1ccccc1CN(C)C(=O)[C@H](Cc1c[nH]c2ccccc12)NC(=O)[C@@H]1C[C@@H](O)CN1C(=O)C1C(=O)C2(C)CCC1C2(C)C` (stereo partly drawn) [Compound 44] was tested, and the IC50 [1, 2] was 5.1 nM and the IC50 (human NK2 receptor) was 39 nM.

With `Cc1ccccc1CN(C)C(=O)[C@H](Cc1cn(C)c2ccccc12)NC(=O)[C@@H]1C[C@@H](O)CN1C(=O)C1C(=O)C2(C)CCC1C2(C)C` (stereo partly drawn) [Compound 45] the IC50 [1, 2] was 4.9 nM and the IC50 (human NK2 receptor) was 59 nM.

`Cc1ccccc1CN(C)C(=O)[C@H](Cc1c[nH]c2ccccc12)NC(=O)[C@@H]1CCCN1C(=O)C1C(=O)C2(C)CCC1C2(C)C` (stereo partly drawn) [Compound 47] gave an IC50 [1, 2] of 3.2 nM and an IC50 (human NK2 receptor) of 57 nM.
